Measurements published in ChEMBL document CHEMBL3621124, “Synthesis, cytotoxicity and inhibition of NO production of ivangustin enantiomer analogues” (Eur J Med Chem, 2015).

Tests used:
SMMC-7721 = experiment: Cytotoxicity against human SMMC7721 cells assessed as growth inhibition incubated for 72 hrs by MTT assay; format: functional, cell-based; conditions: SMMC-7721, 72 h
HCT-116 = experiment: Cytotoxicity against human HCT116 cells assessed as growth inhibition incubated for 72 hrs by MTT assay; format: functional, cell-based; conditions: HCT-116, 72 h
RAW264.7 [1] = experiment: Anti-inflammatory activity against LPS-induced mouse RAW264.7 cells assessed as inhibition of nitric oxide production incubated for 20 mins before LPS induction by Griess method; format: functional, cell-based
RAW264.7 [2] = experiment: Cytotoxicity against LPS-induced mouse RAW264.7 cells incubated for 18 hrs by MTT assay; format: cell-based; conditions: RAW264.7, 18 h
MCF7 = experiment: Cytotoxicity against human MCF7 cells assessed as growth inhibition incubated for 72 hrs by MTT assay; format: functional, cell-based; conditions: MCF7, 72 h
A549 = experiment: Cytotoxicity against human A549 cells assessed as growth inhibition incubated for 72 hrs by MTT assay; format: functional, cell-based; conditions: A549, 72 h
HL-60 = experiment: Cytotoxicity against human HL60 cells assessed as growth inhibition incubated for 72 hrs by CCK8 assay; format: functional, cell-based; conditions: HL-60, 72 h
[3] = Cytotoxicity against human QGY7701 cells assessed as growth inhibition incubated for 72 hrs by MTT assay; format: functional, cell-based; conditions: QGY7701, 72 h

COc1cccc2c1C(=O)c1c(O)c3c(c(O)c1C2=O)C[C@@](O)(C(=O)CO)C[C@@H]3O[C@H]1C[C@H](N)[C@H](O)[C@H](C)O1 [DOXORUBICIN]
IC50 (SMMC-7721): 0.57 µM | IC50 (HCT-116): 0.18 µM

C=C1C(=O)O[C@H]2C[C@@H](C)C(=O)C[C@@H]12
IC50 (RAW264.7 [1]): 5.82 µM | IC50 (RAW264.7 [2]): 30.6 µM | IC50 (SMMC-7721): 42.6 µM | IC50 (MCF7): 15.7 µM | IC50 (A549): 14.9 µM | IC50 (HCT-116): 18.3 µM | IC50 (HL-60): 12.6 µM | IC50 [3]: 8.58 µM

C=C1C(=O)O[C@H]2C[C@](C)(/C=C/C(=O)CC)C(=O)C[C@@H]12
IC50 (RAW264.7 [1]): 4.72 µM | IC50 (RAW264.7 [2]): 9.94 µM | IC50 (SMMC-7721): 25.4 µM | IC50 (MCF7): 9.03 µM | IC50 (A549): 10.5 µM | IC50 (HCT-116): 5.8 µM | IC50 (HL-60): 1.02 µM | IC50 [3]: 6.16 µM

N=C(N)NN [PIMAGEDINE]
IC50 (RAW264.7 [1]): 11.9 µM

C=C1C(=O)O[C@H]2C[C@@]3(C)C(=O)[C@@H]([C@@H]12)[C@](O)(CC)C[C@@H]3OCOC
IC50 (RAW264.7 [1]): 6.7 µM | IC50 (RAW264.7 [2]): 20.1 µM | IC50 (SMMC-7721): 31.7 µM | IC50 (MCF7): 16.4 µM | IC50 (A549): 17 µM | IC50 (HCT-116): 14.5 µM | IC50 (HL-60): 9.37 µM | IC50 [3]: 7.75 µM

C=C1C(=O)O[C@H]2C[C@]3(C)C(=O)C=C(CC)OC3=C[C@@H]12
IC50 (RAW264.7 [1]): 3.44 µM | IC50 (RAW264.7 [2]): 10.3 µM | IC50 (SMMC-7721): 19.6 µM | IC50 (MCF7): 7.86 µM | IC50 (A549): 9.58 µM | IC50 (HCT-116): 9.37 µM | IC50 (HL-60): 5.06 µM | IC50 [3]: 3.55 µM

C=C1C(=O)O[C@H]2C[C@](C)(C(=O)CC(=O)CC)C(=O)C[C@@H]12
IC50 (RAW264.7 [1]): 6.99 µM | IC50 (RAW264.7 [2]): 47.2 µM | IC50 (SMMC-7721): 48.6 µM | IC50 (MCF7): 27.2 µM | IC50 (A549): 21.9 µM | IC50 (HCT-116): 21 µM | IC50 (HL-60): 16.4 µM | IC50 [3]: 13.7 µM

C=C1C(=O)O[C@H]2C[C@]3(C)C(=O)C=C(CC)[C@@H](C3=O)[C@@H]12
IC50 (RAW264.7 [1]): 4.26 µM | IC50 (RAW264.7 [2]): 12.2 µM | IC50 (SMMC-7721): 27.2 µM | IC50 (MCF7): 11.6 µM | IC50 (A549): 9.65 µM | IC50 (HCT-116): 9.94 µM | IC50 (HL-60): 3.8 µM | IC50 [3]: 5.55 µM

C=C(C)CC[C@H](O)[C@@]1(C)C[C@@H]2OC(=O)C(=C)[C@@H]2CC1=O
IC50 (RAW264.7 [1]): 6.12 µM | IC50 (RAW264.7 [2]): 26.6 µM | IC50 (SMMC-7721): 53.1 µM | IC50 (MCF7): 18.9 µM | IC50 (A549): 17.4 µM | IC50 (HCT-116): 19.2 µM | IC50 (HL-60): 14.8 µM | IC50 [3]: 8.7 µM

C=C(C)CC[C@H](OC(C)=O)[C@@]1(C)C[C@@H]2OC(=O)C(=C)[C@@H]2CC1=O
IC50 (RAW264.7 [1]): 4.63 µM | IC50 (RAW264.7 [2]): 14.4 µM | IC50 (SMMC-7721): 24.8 µM | IC50 (MCF7): 12 µM | IC50 (A549): 11 µM | IC50 (HCT-116): 8.53 µM | IC50 (HL-60): 7.31 µM | IC50 [3]: 4.88 µM
